Data published in article PMC6163091 (Chemical biology & drug design, 2018).
Where two headings read alike, the source gives them in different places.

What was measured:
[1] = biological target: guanosine/adenosine/cytidine nucleoside hydrolase (GACNH) (Trichomonas vaginalis, UniProt A2DN71); experiment: 1H NMR-based activity assay of GACNH; assay type: biochemical; conditions: for inhibition at 250 µM: read-out: % inhibition at 250 μM against GACNH
[2] = biological target: T1, adenosine/guanosine nucleoside hydrolase (AGNH) (Trichomonas vaginalis, UniProt A2EYV3); experiment: 1H NMR activity assay of AGNH; assay type: biochemical; conditions: for inhibition at 250 µM: read-out: % inhibition at 250 μM against AGNH
T1 sequence (A2EYV3 1-304): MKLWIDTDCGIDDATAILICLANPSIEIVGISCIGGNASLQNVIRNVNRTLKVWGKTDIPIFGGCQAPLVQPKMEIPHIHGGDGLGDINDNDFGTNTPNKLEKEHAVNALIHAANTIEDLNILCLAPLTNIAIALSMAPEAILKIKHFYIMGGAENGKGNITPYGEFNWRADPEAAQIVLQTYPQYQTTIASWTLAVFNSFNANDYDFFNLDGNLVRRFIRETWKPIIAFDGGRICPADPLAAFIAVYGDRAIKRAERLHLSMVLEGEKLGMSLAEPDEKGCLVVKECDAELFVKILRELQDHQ

[3] = tested on: uridine nucleoside hydrolase (UNH); experiment: 19F NMR activity assay of UNH; assay type: biochemical, Trichomonas vaginalis; conditions: 250 μM compound; NM = not measurable (percent inhibition < 10%)
[4] = tested on: uridine nucleoside hydrolase (UNH); conditions: NMR screen of NIH Clinical Collection; cited from earlier work
[5] = IC50 (μM) with Triton, GACNH, in the presence of 0.01% Triton X-100
[6] = IC50 against GACNH, ribavirin analogs, Table 2
[7] = carboxamidine in place of carboxamide

O=C1c2c(O)cc(O)cc2O[C@H](c2ccc(O)c(O)c2)[C@H]1O (racemic) [(±)-Taxifolin]
IC50 ([1]; read-out: IC50 (μM) with Triton, GACNH, in the presence of 0.01% Triton X-100): 41.6 ± 20.4 µM

NC(=O)c1ncn([C@@H]2O[C@H](CO)[C@@H](O)[C@H]2O)c1N [Acadesine]
inhibition at 250 µM [2]: < 10%
inhibition at 250 µM [1]: 70%
% inhibition at 250 μM against UNH [3]: 51%

CCc1oc2ccccc2c1C(=O)c1cc(Br)c(O)c(Br)c1 [Benzbromarone]
IC50 [1, 5]: 134 ± 32.7 µM

OC[C@H]1O[C@@H](n2cnc3c(NC4CCCC4)nc(Cl)nc32)[C@H](O)[C@@H]1O [CCPA, 2-chloro-N(6)-cyclopentyladenosine]
IC50 [1, 5]: 14 ± 5.8 µM

O=c1c(O[C@@H]2O[C@H](CO)[C@H](O)[C@H](O)[C@H]2O)c(-c2ccc(O)c(O)c2)oc2cc(O)cc(O)c12 [Hyperoside]
IC50 [1, 5]: 22.6 ± 7.6 µM

COc1ccc(-c2oc3c(CC=C(C)C)c(O[C@@H]4O[C@H](CO)[C@@H](O)[C@H](O)[C@H]4O)cc(O)c3c(=O)c2O[C@@H]2O[C@@H](C)[C@H](O)[C@@H](O)[C@H]2O)cc1 [Icariin]
IC50 [1, 5]: 5 ± 1.7 µM

O=c1c(O[C@@H]2O[C@H](CO)[C@@H](O)[C@H](O)[C@H]2O)c(-c2ccc(O)c(O)c2)oc2cc(O)cc(O)c12 [Isoquercitrin]
IC50 [1, 5]: 2.2 ± 0.6 µM

NC(=O)c1ncn([C@@H]2O[C@H](CO)[C@@H](O)[C@H]2O)c1O [Mizoribine]
inhibition at 250 µM [2]: < 10%
inhibition at 250 µM [1]: < 10%
% inhibition at 250 μM against UNH [3]: NM (Not measurable (percent inhibition < 10%))

NC(=O)c1ncn([C@@H]2O[C@H](CO)[C@@H](O)[C@H]2O)n1 [Ribavirin]
inhibition at 250 µM [2]: 83%
IC50 [1, 5]: 9 ± 3.3 µM
IC50 [1, 6]: 8.6 ± 4.4 µM
GACNH inhibition in screen ([1]; screen of NIH Clinical Collection, 50 μM compound, 100 μM adenosine, 40 min): significant inhibition
% inhibition at 250 μM against UNH [3]: 58%

N=C(N)c1ncn([C@@H]2O[C@H](CO)[C@@H](O)[C@H]2O)n1 [Viramidine]
IC50 [2]: 0.12 ± 0.03 µM
enhancement of potency against AGNH relative to ribavirin [2, 7]: more than 100 fold
selectivity toward AGNH over GACNH ([2]; from IC50 values): 10 fold
IC50 [1, 6]: 1.1 ± 0.6 µM
enhancement of potency against GACNH relative to ribavirin [1, 7]: about 10 fold
% inhibition at 250 μM against UNH [3]: 55%

COc1ccc2[nH]c([S+]([O-])Cc3ncc(C)c(OC)c3C)nc2c1 (centres unmarked) [omeprazole]
inhibition of UNH (earlier screen) [4]: potent inhibitors

COc1ccnc(C[S+]([O-])c2nc3ccc(OC(F)F)cc3[nH]2)c1OC (centres unmarked) [pantoprazole]
inhibition of UNH (earlier screen) [4]: potent inhibitors

COCCCOc1ccnc(C[S+]([O-])c2nc3ccccc3[nH]2)c1C (centres unmarked) [rabeprazole]
inhibition of UNH (earlier screen) [4]: potent inhibitors
